Reference: US20130281449A1, “Oxazine Derivatives and their Use in the Treatment of Neurological Disorders” (NOVARTIS AG, priority 2011, published 2013)
Counter-ions that a name gives are not always drawn.

How the values were obtained:
Human BACE-1 = Human BACE-1 (Homo sapiens, UniProt P56817); test: Test 1: Inhibition of Human BACE-1; assay type: biochemical; details: mean IC50 values in Test 1; recombinant BACE-1, pH 4.5
Protocol: Test 1: Inhibition of Human BACE-1
IC50 values are calculated from percentage of inhibition of BACE-1 activity as a function of the test compound concentration.

[1] = system: Cellular Release of Amyloid Peptide 1-40; test: Test 4: Inhibition of Cellular Release of Amyloid Peptide 1-40; assay type: cell-based, Chinese hamster; details: Cricetulus griseus, 24 h; read-out: Amyloid-β1-40 release IC50
Protocol: Chinese hamster ovary cells are transfected with the human gene for amyloid precursor protein. The cells are plated at a density of 8000 cells/well into 96-well microtiter plates and cultivated for 24 hours in DMEM cell culture medium containing 10% FCS. The test compound is added to the cells at various concentrations, and the cells are cultivated for 24 hours in the presence of the test compound. […] The potency of the compound is calculated from the percentage of inhibition of amyloid peptide release as a function of the test compound concentration.

Human BACE-1, sequence (P56817 46-457 limits assumed): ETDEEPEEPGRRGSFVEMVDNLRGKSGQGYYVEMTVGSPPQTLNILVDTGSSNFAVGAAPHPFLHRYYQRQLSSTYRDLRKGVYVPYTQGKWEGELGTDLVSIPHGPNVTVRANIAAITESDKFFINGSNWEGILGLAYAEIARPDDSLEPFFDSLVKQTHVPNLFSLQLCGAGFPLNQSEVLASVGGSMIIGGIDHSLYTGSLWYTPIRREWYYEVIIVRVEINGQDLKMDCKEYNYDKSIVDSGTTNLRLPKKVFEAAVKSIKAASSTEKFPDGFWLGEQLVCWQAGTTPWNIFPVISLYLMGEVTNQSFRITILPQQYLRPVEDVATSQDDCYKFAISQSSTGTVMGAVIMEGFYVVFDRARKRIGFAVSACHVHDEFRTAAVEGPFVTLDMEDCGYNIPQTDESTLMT

IC50 (Human BACE-1) | IC50 [1] | SMILES
20 nM | 7 nM | Cl.[2H]C([2H])([2H])Oc1cnc(C(=O)Nc2ccc(F)c([C@]3(C)CO[C@@](C)(C(F)(F)F)C(N)=N3)c2)c(Cl)c1 [Example 22, 3-Chloro-5-trideutero-methoxy-pyridine-2-carboxylic acid [3-((3R,6R)-5-amino-3,6-dimethyl-6-trifluoromethyl-3,6-dihydro-2H-[1,4]oxazin-3-yl)-4-fluoro-phenyl]-amide hydrochloride]
10 nM | 8 nM | C[C@@]1(c2cc(NC(=O)c3ncc(C(F)F)nc3N)ccc2F)CO[C@@](C)(C(F)(F)F)C(N)=N1 [Example 28, 3-Amino-5-difLuoromethyl-pyrazine-2-carboxylic acid [3-((3R,6R)-5-amino-3,6-dimethyl-6-trifluoromethyl-3,6-dihydro-2H-[1,4]oxazin-3-yl)-4-fluoro-phenyl]-amide]
25 nM | 8 nM | NC1=N[C@@](c2cc(NC(=O)c3ncc(C(F)F)nc3N)ccc2F)(C(F)F)COC1 [Example 6, 3-Amino-5-difluoromethyl-pyrazine-2-carboxylic acid [3-((R)-5-amino-3-difluoromethyl-3,6-dihydro-2H-[1,4]oxazin-3-yl)-4-fluoro-phenyl]-amide]
220 nM | 79 nM | COc1ccc(C(=O)Nc2ccc(F)c([C@]3(C)CO[C@@](C)(C(F)(F)F)C(N)=N3)c2)c(N)n1 [Example 44, 2-Amino-N-[3-((3R,6R)-5-amino-3,6-dimethyl-6-trifluoromethyl-3,6-dihydro-2H-[1,4]oxazin-3-yl)-4-fluoro-phenyl]-6-methoxy-nicotinamide]
300 nM | 22 nM | Cc1cc(OC(F)F)cnc1C(=O)Nc1ccc(F)c(C2(C)COC(CF)(CF)C(N)=N2)c1 (stereo not drawn) [Example 39, 5-Difluoromethoxy-3-methyl-pyridine-2-carboxylic acid [3-(5-amino-6,6-bis-fluoromethyl-3-methyl-3,6-dihydro-2H-[1,4]oxazin-3-yl)-4-fluoro-phenyl]-amide]
20 nM | 11 nM | C[C@@]1(c2cc(NC(=O)c3ncc(C(F)F)cc3Cl)ccc2F)CO[C@@](C)(C(F)(F)F)C(N)=N1 [Example 32, 3-Chloro-5-difluormethyl-pyridine-2-carboxylic acid [3-((3R,6R)-5-amino-3,6-dimethyl-6-trifluoromethyl-3,6-dihydro-2H-[1,4]oxazin-3-yl)-4-fluoro-phenyl]-amide]
110 nM | 36 nM | [2H]C([2H])([2H])OCc1cc(F)cnc1C(=O)Nc1ccc(F)c([C@]2(C(F)F)COCC(N)=N2)c1 [Example 9, 5-Fluoro-3-trideuteromethoxymethyl-pyridine-2-carboxylic acid [3-((R)-5-amino-3-difluoromethyl-3,6-dihydro-2H-[1,4]oxazin-3-yl)-4-fluoro-phenyl]-amide]
18 nM | 6 nM | COCc1cc(Cl)cnc1C(=O)Nc1ccc(F)c([C@]2(C(F)F)COCC(N)=N2)c1 [Example 1, 5-Chloro-3-methoxymethyl-pyridine-2-carboxylic acid [3-((R)-5-amino-3-difluoromethyl-3,6-dihydro-2H-[1,4]oxazin-3-yl)-4-fluoro-phenyl]-amide]
11 nM | 9 nM | [2H]C([2H])([2H])OCc1cc(C#N)cnc1C(=O)Nc1ccc(F)c([C@]2(C)CO[C@@](C)(C(F)(F)F)C(N)=N2)c1 [Example 31, 5-Cyano-3-trideuteromethoxymethyl-pyridine-2-carboxylic acid [3-((3R,6R)-5-amino-3,6-dimethyl-6-trifluoromethyl-3,6-dihydro-2H-[1,4]oxazin-3-yl)-4-fluoro-phenyl]-amide]
5 nM | 26 nM | Cc1cc(Cl)cnc1C(=O)Nc1ccc(F)c([C@]2(C)CO[C@@](C)(C(F)(F)F)C(N)=N2)c1 [Example 20, 5-Chloro-3-methyl-pyridine-2-carboxylic acid [3-((3R,6R)-5-amino-3,6-dimethyl-6-trifluoromethyl-3,6-dihydro-2H-[1,4]oxazin-3-yl)-4-fluoro-phenyl]-amide hydrochloride]
2600 nM | 720 nM | COc1ccc(C(=O)Nc2ccc(F)c([C@]3(C)CO[C@@](C)(C(F)(F)F)C(N)=N3)c2)c(Cl)n1 [Example 45, N-[3-((3R,6R)-5-Amino-3,6-dimethyl-6-trifluoromethyl-3,6-dihydro-2H-[1,4]oxazin-3-yl)-4-fluoro-phenyl]-2-chloro-6-methoxy-nicotinamide]
16 nM | 10 nM | C[C@@]1(c2cc(NC(=O)c3ncc(C(F)(F)F)cc3Cl)ccc2F)CO[C@@](C)(C(F)(F)F)C(N)=N1 [Example 34, 3-Chloro-5-trifluoromethyl-pyridine-2-carboxylic acid [3-((3R,6R)-5-amino-3,6-dimethyl-6-trifluoromethyl-3,6-dihydro-2H-[1,4]oxazin-3-yl)-4-fluoro-phenyl]-amide]
20 nM | 9 nM | COc1cnc(C(=O)Nc2ccc(F)c([C@]3(C)CO[C@@](C)(C(F)(F)F)C(N)=N3)c2)c(Cl)c1 [Example 18, 3-Chloro-5-methoxy-pyridine-2-carboxylic acid [3-((3R,6R)-5-amino-3,6-dimethyl-6-trifluoromethyl-3,6-dihydro-2H-[1,4]oxazin-3-yl)-4-fluoro-phenyl]-amide hydrochloride]
48 nM | 13 nM | Cc1cc(Cl)cnc1C(=O)Nc1ccc(F)c(C2(C)COC(CF)(CF)C(N)=N2)c1 (stereo not drawn) [Example 41, 5-Chloro-3-methyl-pyridine-2-carboxylic acid [3-(5-amino-6,6-bis-fluoromethyl-3-methyl-3,6-dihydro-2H-[1,4]oxazin-3-yl)-4-fluoro-phenyl]-amide]
29 nM | 4 nM | Cc1cc(OC(F)F)cnc1C(=O)Nc1ccc(F)c([C@]2(C)COC(CF)(CF)C(N)=N2)c1 [Example 40, 5-Difluoromethoxy-3-methyl-pyridine-2-carboxylic acid [3-((R)-5-amino-6,6-bis-fluoromethyl-3-methyl-3,6-dihydro-2H-[1,4]oxazin-3-yl)-4-fluoro-phenyl]-amide]
14 nM | 6 nM | Cc1cc(OC(F)F)cnc1C(=O)Nc1ccc(F)c([C@]2(C)CO[C@@](C)(C(F)(F)F)C(N)=N2)c1 [Example 24, 5-Difluoromethoxy-3-methyl-pyridine-2-carboxylic acid [3-((3R,6R)-5-amino-3(6-dimethyl-6-trifluoromethyl-3,6-dihydro-2H-[1,4]oxazin-3-yl)-4-fluoro-phenyl]-amide hydrochloride]
24 nM | 22 nM | N#Cc1cnc(C(=O)Nc2ccc(F)c([C@]3(CF)COC(CF)(CF)C(N)=N3)c2)c(Cl)c1 [Example 43, 3-Chloro-5-cyano-pyridine-2-carboxylic acid [3-((R)-5-amino-3,6,6-tris-fluoromethyl-3,6-dihydro-2H-[1,4]oxazin-3-yl)-4-fluoro-phenyl]-amide]
12 nM | 14 nM | NC1=N[C@@](c2cc(NC(=O)c3ccc4c(Cl)c[nH]c4n3)ccc2F)(C(F)F)COC1 [Example 5, 3-Chloro-1H-pyrrolo[2,3-b]pyridine-6-carboxylic acid [3-((R)-5-amino-3-difIuoromethyl-3,6-dihydro-2H-[1,4]oxazin-3-yl)-4-fluoro-phenyl]-amide]
